We go through five compounds from US9119879B2, “Oral care compositions comprising a quinone and a further antimicrobial agent” (Colgate-Palmolive Company, priority 2010, dated 2015).

One assay has as its system A. viscosus biofilm. Kind of assay: Single species A. viscosus biofilm assay (Biofilm Eradication Concentration, BEC50). The assay is classed as cell-based. Conditions: for BEC50 of Active + 50 ppm TBHQ: active combined with 50 ppm TBHQ; for BEC50 of Active Alone: lowest concentration with greater than 50% reduction in biofilm biomass relative to control, TBHQ tested at 50 ppm. The procedure: TBHQ and a series of actives were tested in single species of A. viscosus biofilm assay.

In a further assay the test system is F. nucleatum. The assay can be described thus: Minimum inhibitory concentration (MIC) of TBHQ. The assay is classed as cell-based.
Another assay relates to PGE2. The assay can be described thus: Anti-inflammatory efficacy in cells triggered by Heat Killed P. gingivalis (HKPG): PGE2 level. The assay is classed as cell-based, human. The procedure:
(§1) The anti-inflammatory efficacy of TBHQ in neat solution against several inflammation cytokines was evaluated. Human fibroblast (HEPM) cells or human macrophage (U937) cells were used in these tests. Inflammation was triggered by Heat Killed P. gingivalis (HKPG). TBHQ at various doses was co-incubated with cells treated with HKPG, and the levels of inflammatory markers were observed.

The test system of a further assay is TNF-α. Kind of assay: Anti-inflammatory efficacy in cells triggered by HKPG: TNF-α level. The assay is classed as cell-based, human. The procedure: as §1
For a further assay, the system named is A. viscosus. The assay can be described thus: Minimum inhibitory concentration (MIC) of TBHQ. The assay is classed as cell-based.
In a further assay the test system is IL-1b. The assay can be described thus: Anti-inflammatory efficacy in cells triggered by HKPG: IL-1b level. The assay is classed as cell-based, human. The procedure:
as §1

The test system of a further assay is P. gingivalis. The assay can be described thus: Minimum inhibitory concentration (MIC) of TBHQ. The assay is classed as cell-based.
The next assay deals with IL-6. The assay can be described thus: Anti-inflammatory efficacy in cells triggered by HKPG: IL-6 level. The assay is classed as cell-based, human. The procedure: as §1
The subject of a further assay is common pathogens. The assay can be described thus: Antimicrobial activity relative to known antimicrobial agents. The assay is classed as cell-based.
[1] abbreviates: TBHQ 10 ppm, HKPG-treated cells.
The mark [2] stands for this setting: TBHQ 100 ppm, HKPG-treated cells.

For the compound `[Cl][Sn][Cl]` [Stannous chloride], in the assay with A. viscosus biofilm, the “BEC50 of Active + 50 ppm TBHQ” value was 39 ppm and the “BEC50 of Active Alone” value is listed as 156.3 ppm.

Take `CC(C)(C)c1cc(O)ccc1O` [TBHQ, 2-t-butyl-p-hydroquinone]: the MIC in the assay with F. nucleatum, against A. viscosus and against P. gingivalis was 62.5 ppm throughout. For the same compound, the PGE2 level in the assay with PGE2 (TBHQ 0.9 ppm, HKPG-treated cells) turned out to be 1323 pg/mL; in the assay on PGE2 (TBHQ 1.8 ppm, HKPG-treated cells), 1378 pg/mL; in the assay on PGE2 (TBHQ 3.9 ppm, HKPG-treated cells), 1327 pg/mL; in the assay on PGE2 (TBHQ 7.8 ppm, HKPG-treated cells), 1563 pg/mL; in the assay on PGE2 (TBHQ 15.6 ppm, HKPG-treated cells) it was 1249 pg/mL; in the assay with PGE2 (TBHQ 31.2 ppm, HKPG-treated cells), 1124 pg/mL. Further, in the assay with PGE2 (TBHQ 62.5 ppm, co-incubated with HKPG-treated cells (HKPG alone 1743, untreated 1579)), the PGE2 level was 764 pg/mL. The TNF-α with TNF-α (TBHQ 1 ppm, HKPG-treated cells (HKPG alone 194, untreated 15)) is given as 198 pg/mL; in the assay with TNF-α (setting [1]) it was 68 pg/mL; in the assay on TNF-α (setting [2]), 7 pg/mL. The IL-1b in the assay with IL-1b (TBHQ 1 ppm, HKPG-treated cells (HKPG alone 85, untreated 63)) is given as 88 pg/mL; with IL-1b (setting [1]) it was 55 pg/mL; in the assay on IL-1b (setting [2]), 29 pg/mL. Besides, the IL-6 worked out at 405 pg/mL in the assay on IL-6 (TBHQ 1 ppm, HKPG-treated cells (HKPG alone 1753, untreated 42)); 100 pg/mL in the assay with IL-6 (setting [1]); 23 pg/mL with IL-6 (setting [2]). In addition, the “antimicrobial activity, times lower than known antimicrobial agent” value in the assay with common pathogens (relative to cetylpyridinium chloride (CPC)) worked out at 60 times; in the assay on common pathogens (relative to triclosan), 20 times. Besides, the “reduction in biofilm biomass” value with A. viscosus biofilm (TBHQ alone at 12.5 ppm) and with A. viscosus biofilm (TBHQ alone at 50 ppm) was no more than 50% throughout. The BEC50 result in the assay with A. viscosus biofilm (Table 3, TBHQ at 12.5 ppm, alone or with zinc oxide slurry) is “Not measurable”. Further, in the assay on A. viscosus biofilm, the “BEC50 of Active Alone” value is given as “Not measurable”.

As for `COc1cc(CCC(=O)CC(=O)CCc2ccc(O)c(OC)c2)ccc1O` [Tetra-hydrocurcumin], in the assay with A. viscosus biofilm, the “BEC50 of Active + 50 ppm TBHQ” value turned out to be 1.22 ppm and the “BEC50 of Active Alone” value is on record as greater than 2500 ppm.

With `Oc1cc(Cl)ccc1Oc1ccc(Cl)cc1Cl` [Triclosan, reference compound], in the assay with A. viscosus biofilm, the “BEC50 of Active + 50 ppm TBHQ” value was less than 0.03 ppm and the “BEC50 of Active Alone” value was found to be 0.49 ppm.

Turning to `O=C([O-])CC(O)(CC(=O)[O-])C(=O)[O-].O=C([O-])CC(O)(CC(=O)[O-])C(=O)[O-].[Zn+2].[Zn+2].[Zn+2]` [Zinc Citrate], in the assay on A. viscosus biofilm, the “BEC50 of Active + 50 ppm TBHQ” value was found to be 19.5 ppm and the “BEC50 of Active Alone” value was found to be 78.1 ppm.
